Laboratory results: patent publication US9902696B2, “1,4-substituted piperidine derivatives” (Cephalon, Inc., priority 2015, dated 2018)
pIC50: −log10 of the molar value. Where a name gives a salt, the structure may show the parent alone. Read-outs that look alike come from different tables or passages of the source.

Target: T1, recombinant human baculovirus-expressed GST-tagged FASN (Homo sapiens, UniProt P49327)
T1 construct: GST
Assay: FASN enzyme activity assay, fluorescence-based detection of CoA with CPM
Type: biochemical
Conditions: 5 nM FASN, 150 μM NADPH, 10 μM acetyl-CoA, 25 μM malonyl-CoA, 90 minutes incubation
Outline: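 CoA product reacted with thiol-reactive CPM (diluted to 50 μM in 70% ethanol), read at 390/530 nm after 30 min. Preceding reaction: 90 min, 5 nM recombinant GST-FASN, 150 μM NADPH, 10 μM acetyl-CoA, 25 μM malonyl-CoA, pH 7.5 HEPES, 0.5% DMSO. IC50s fitted by nonlinear sigmoidal regression.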

[1] = read-out: IC50 data for Compounds of Formulae I-V/V(a): Activity
[2] = read-out: IC50 data for Additional Compounds of Formulae I-V(a): Activity

T1 sequence (P49327 whole entry): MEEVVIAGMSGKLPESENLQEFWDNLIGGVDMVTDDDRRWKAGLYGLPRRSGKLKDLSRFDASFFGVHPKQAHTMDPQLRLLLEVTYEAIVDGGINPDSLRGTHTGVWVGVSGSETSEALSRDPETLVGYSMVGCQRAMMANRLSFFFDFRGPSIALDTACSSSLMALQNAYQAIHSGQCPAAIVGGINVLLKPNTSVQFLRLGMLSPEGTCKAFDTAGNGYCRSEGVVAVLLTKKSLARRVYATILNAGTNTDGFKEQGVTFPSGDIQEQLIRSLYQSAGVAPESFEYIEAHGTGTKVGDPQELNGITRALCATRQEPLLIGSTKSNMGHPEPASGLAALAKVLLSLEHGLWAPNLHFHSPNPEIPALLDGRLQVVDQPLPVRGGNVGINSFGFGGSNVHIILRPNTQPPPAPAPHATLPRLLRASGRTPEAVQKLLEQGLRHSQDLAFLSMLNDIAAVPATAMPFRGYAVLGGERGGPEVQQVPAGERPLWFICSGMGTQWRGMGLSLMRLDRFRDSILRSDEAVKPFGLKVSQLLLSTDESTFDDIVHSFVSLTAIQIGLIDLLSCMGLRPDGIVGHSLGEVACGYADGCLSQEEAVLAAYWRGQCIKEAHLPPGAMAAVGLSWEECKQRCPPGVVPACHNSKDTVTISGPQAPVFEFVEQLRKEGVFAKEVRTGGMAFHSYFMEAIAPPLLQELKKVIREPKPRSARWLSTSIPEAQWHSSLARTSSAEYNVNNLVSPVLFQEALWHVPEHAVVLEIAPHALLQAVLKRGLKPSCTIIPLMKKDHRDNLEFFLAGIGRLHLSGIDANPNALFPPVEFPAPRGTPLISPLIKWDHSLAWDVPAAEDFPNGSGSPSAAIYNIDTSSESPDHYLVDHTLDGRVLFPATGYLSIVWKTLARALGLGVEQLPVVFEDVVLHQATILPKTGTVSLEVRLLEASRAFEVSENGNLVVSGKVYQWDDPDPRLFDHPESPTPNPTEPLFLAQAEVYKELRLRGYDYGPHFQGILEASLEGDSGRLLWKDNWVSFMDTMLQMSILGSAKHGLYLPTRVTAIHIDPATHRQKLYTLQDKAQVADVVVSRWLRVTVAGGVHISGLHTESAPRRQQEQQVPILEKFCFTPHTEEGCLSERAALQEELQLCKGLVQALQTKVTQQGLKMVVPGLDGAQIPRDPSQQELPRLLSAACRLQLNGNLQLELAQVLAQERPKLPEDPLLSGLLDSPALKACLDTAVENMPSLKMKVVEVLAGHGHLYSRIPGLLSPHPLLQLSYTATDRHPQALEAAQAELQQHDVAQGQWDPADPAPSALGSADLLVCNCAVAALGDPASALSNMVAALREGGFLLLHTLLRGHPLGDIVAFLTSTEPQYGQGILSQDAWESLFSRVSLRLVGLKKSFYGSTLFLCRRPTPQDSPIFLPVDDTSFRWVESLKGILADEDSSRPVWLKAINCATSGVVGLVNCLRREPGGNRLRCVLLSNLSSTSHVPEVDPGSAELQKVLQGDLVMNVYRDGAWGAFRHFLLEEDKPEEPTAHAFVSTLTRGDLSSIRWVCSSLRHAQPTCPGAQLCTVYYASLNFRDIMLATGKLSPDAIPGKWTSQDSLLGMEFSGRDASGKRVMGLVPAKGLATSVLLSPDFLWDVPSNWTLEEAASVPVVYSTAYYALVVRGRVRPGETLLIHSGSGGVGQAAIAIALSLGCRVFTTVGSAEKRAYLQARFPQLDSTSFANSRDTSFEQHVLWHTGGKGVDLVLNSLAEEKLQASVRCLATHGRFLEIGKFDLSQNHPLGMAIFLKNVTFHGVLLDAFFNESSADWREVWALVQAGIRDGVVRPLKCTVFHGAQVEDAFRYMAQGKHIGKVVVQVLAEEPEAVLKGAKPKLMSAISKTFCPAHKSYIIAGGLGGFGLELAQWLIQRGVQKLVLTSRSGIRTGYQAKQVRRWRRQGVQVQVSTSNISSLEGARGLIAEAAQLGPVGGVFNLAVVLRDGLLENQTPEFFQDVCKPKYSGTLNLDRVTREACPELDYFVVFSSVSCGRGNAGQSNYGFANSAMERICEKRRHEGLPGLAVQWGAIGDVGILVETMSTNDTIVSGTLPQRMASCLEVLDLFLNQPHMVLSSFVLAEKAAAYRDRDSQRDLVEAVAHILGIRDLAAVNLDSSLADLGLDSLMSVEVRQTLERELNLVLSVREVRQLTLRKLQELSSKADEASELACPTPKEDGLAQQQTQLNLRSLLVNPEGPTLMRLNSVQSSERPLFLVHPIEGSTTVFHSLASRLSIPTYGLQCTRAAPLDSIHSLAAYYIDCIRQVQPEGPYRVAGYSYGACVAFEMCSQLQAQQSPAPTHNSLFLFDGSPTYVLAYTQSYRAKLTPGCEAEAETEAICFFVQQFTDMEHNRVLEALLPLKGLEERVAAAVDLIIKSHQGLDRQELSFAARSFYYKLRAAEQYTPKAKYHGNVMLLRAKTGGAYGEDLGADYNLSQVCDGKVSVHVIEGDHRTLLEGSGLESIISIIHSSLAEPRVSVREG

| SMILES | pIC50 [1] | pIC50 [2] |
| --- | --- | --- |
| O=C(C1CC1)N1CCC(Oc2ccc(-c3cnc4ccccc4c3Cl)cc2)CC1 [Example 48, {4-[4-(4-Chloroquinolin-3-yl)-phenoxy]-piperidin-1-yl}-cyclopropyl-methanone] | 7.00 to 9.00 |  |
| CCC(=O)N1CCC(Oc2ccc(-c3cnc4ccsc4c3)cc2)CC1 [Example 264, 1-[4-(4-Thieno[3,2-b]pyridin-6-yl-phenoxy)-piperidin-1-yl]-propan-1-one, TFA salt] | 5.00 to 6.00 |  |
| O=C(C1CCC1)N1CCC(Oc2ccc(-c3cncc(-c4ccccc4)c3)cc2)CC1 [Example 385, Cyclobutyl-{4-[4-(5-phenylpyridin-3-yl)-phenoxy]-piperidin-1-yl}-methanone, TFA salt] | 5.00 to 6.00 |  |
| COc1cc2ncc(-c3ccc(OC4CCN(C(=O)[C@H]5CCCO5)CC4)cc3)cc2cc1F [Example 446, {4-[4-(6-Fluoro-7-methoxyquinolin-3-yl)-phenoxy]-piperidin-1-yl}-(R)-tetrahydrofuran-2-yl-methanone] | 5.00 to 6.00 |  |
| Cc1c(-c2ccc(OC3CCN(C(=O)C(F)(F)F)CC3)cc2)ccc2cccnc12 [Example 357, 2,2,2-Trifluoro-1-{4-[4-(8-methyl-quinolin-7-yl)-phenoxy]-piperidin-1-yl}-ethanone] | 5.00 to 6.00 |  |
| Nc1cc2cc(-c3ccc(OC4CCN(C(=O)[C@H]5CCCO5)CC4)cc3)ccc2cn1 [Example 436, {4-[4-(3-Aminoisoquinolin-6-yl)-phenoxy]-piperidin-1-yl}-(R)-tetrahydro-furan-2-yl-methanone] | 7.00 to 9.00 |  |
| O=CN1CCC(Oc2ccc(-c3cnc4ccccc4c3)cc2)CC1 [Example 153, 4-(4-Quinolin-3-yl-phenoxy)-piperidine-1-carbaldehyde, HCl] | 5.00 to 6.00 |  |
| CC(C)C(=O)N1CCC(Oc2ccc(-c3ccc4cccnc4c3)cc2)CC1 [Example 3, 2-Methyl-1-[4-(4-quinolin-7-yl-phenoxy)-piperidin-1-yl]-propan-1-one] | 6.00 to 7.00 |  |
| O=C(C1CC1)N1CCC(Oc2ccc(-c3cnc4ccccc4c3)c(F)c2)CC1 [Example 202, Cyclopropyl-[4-(3-fluoro-4-quinolin-3-yl-phenoxy)-piperidin-1-yl]-methanone] | 7.00 to 9.00 |  |
| CCC(=O)N1CCC(Oc2ccc(-c3ccc4scnc4c3)cc2)CC1 [Example 269, 1-[4-(4-Benzothiazol-5-yl-phenoxy)-piperidin-1-yl]-propan-1-one; TFA salt] | 6.00 to 7.00 |  |
| COc1nccc2cc(-c3ccc(OC4CCN(C(=O)C5CC5)CC4)cc3)ccc12 [Example 435, Cyclopropyl-{4-[4-(1-methoxyisoquinolin-6-yl)-phenoxy]-piperidin-1-yl}-methanone] | 6.00 to 7.00 |  |
| CCC(=O)N1CCC(Oc2ccc(-c3ccc4cccnc4c3)cc2Cl)CC1 [Example 194, 1-[4-(2-Chloro-4-quinolin-7-yl-phenoxy)-piperidin-1-yl]-propan-1-one] | 5.00 to 6.00 |  |
| O=C([C@H]1CCCO1)N1CCC(Oc2ccc(-c3ccc4nccn4c3Cl)cc2)CC1 [Example 294, {4-[4-(5-Chloroimidazo[1,2-a]pyridin-6-yl)-phenoxy]-piperidin-1-yl}-(R)-tetrahydrofuran-2-yl-methanone] | 5.00 to 6.00 |  |
| O=C(C1CC1)N1CCC(Oc2ccc(-c3cccc(-c4ccccn4)c3F)cc2)CC1 [Example 396, Cyclopropyl-[4-(2′-fluoro-3′-pyridin-2-yl-biphenyl-4-yloxy)-piperidin-1-yl]-methanone] | 5.00 to 6.00 |  |
| O=C(C1CC1)N1CCC(Oc2cccc(-c3cnc4ccccc4c3)c2)CC1 [Example 497, Cyclopropyl-[4-(3-quinolin-3-yl-phenoxy)-piperidin-1-yl]-methanone] | 5.00 to 6.00 |  |
| Cc1cnc2cc(-c3ccc(OC4CCN(C(=O)C5CC5)CC4)cc3)ccc2c1 [Example 282, Cyclopropyl-{4-[4-(3-methylquinolin-7-yl)-phenoxy]-piperidin-1-yl}-methanone] | 5.00 to 6.00 |  |
| Cc1c(-c2ccc(OC3CCN(C(=O)C4CC4)CC3)cc2)ccc2nccn12 [Example 287, Cyclopropyl-{4-[4-(5-methyl-imidazo[1,2-a]pyridin-6-yl)-phenoxy]-piperidin-1-yl}-methanone] | 6.00 to 7.00 |  |
| Cc1c(-c2ccc(OC3CCN(C(=O)[C@@H]4CCCN4)CC3)cc2)ccc2cccnc12 [Example 621, [4-[4-(8-Methyl-7-quinolyl)phenoxy]-1-piperidyl]-[(2S)-pyrrolidin-2-yl]-methanone] |  | 5.00 to 6.00 |
| CN1CCN(c2c(-c3ccc(OC4CCN(C(=O)[C@H]5CCCO5)CC4)cc3)cnc3ccccc23)CC1 [Example 240, (4-{4-[4-(4-Methylpiperazin-1-yl)-quinolin-3-yl]-phenoxy}-piperidin-1-yl)-(R)-tetrahydrofuran-2-yl-methanone] | 5.00 to 6.00 |  |
| CCC(=O)N1CCC(Oc2ccc(-c3cnc4cccc(OC)c4c3)cc2)CC1 [Example 463, 1-{4-[4-(5-Methoxyquinolin-3-yl)-phenoxy]-piperidin-1-yl}-propan-1-one, HCl] | 5.00 to 6.00 |  |

| SMILES | pIC50 [1] | pIC50 [2] |
| --- | --- | --- |
| O=C(C1CC1)N1CCC(Oc2ccc(-c3ccc(-c4ccccc4)nc3)cc2)CC1 [Example 380, Cyclopropyl-{4-[4-(6-phenyl-pyridin-3-yl)-phenoxy]-piperidin-1-yl}-methanone] | 5.00 to 6.00 |  |
| Cc1cnc(C)c2ccc(-c3ccc(OC4CCN(C(=O)[C@H]5CCCO5)CC4)cc3)cc12 [Example 471, [4-[4-(1,4-Dimethyl-6-isoquinolyl)phenoxy]-1-piperidyl]-[(2R)-tetrahydrofuran-2-yl]methanone, HCl] | 7.00 to 9.00 |  |
| C=CCOC(=O)N1CCC(Oc2ccc(-c3ccc4cccnc4c3C)cc2)CC1 [Example 551, Allyl 4-[4-(8-methyl-7-quinolyl)phenoxy]piperidine-1-carboxylate, HCl] |  | 5.00 to 6.00 |
| CC(C)C(=O)N1CCC(Oc2ccc(-c3cnc4cccnc4c3)cc2)CC1 [Example 13, 2-Methyl-1-[4-(4-1,5-naphthyridin-3-yl-phenoxy)-piperidin-1-yl]-propan-1-one] | 5.00 to 6.00 |  |
| CC(C)C(=O)N1CCC(S(=O)(=O)c2ccc(-c3ccc4cnccc4c3)cc2)CC1 [Example 514, 1-[4-(4-Isoquinolin-6-yl-benzenesulfonyl)-piperidin-1-yl]-2-methyl-propan-1-one] | 5.00 to 6.00 |  |
| O=C([C@H]1CCCO1)N1CCC(Oc2ccc(-c3cc4ccccc4cn3)cc2)CC1 [Example 46, [4-(4-Isoquinolin-3-yl-phenoxy)-piperidin-1-yl]-(R)-tetrahydrofuran-2-yl-methanone] | 7.00 to 9.00 |  |
| CC(C)(C)OC(=O)N1CCC(Oc2ccc(-c3cnc4ccccc4c3)cc2F)CC1 [Example 5, 4-(2-Fluoro-4-quinolin-3-yl-phenox)piperidine-1-carboxylic acid t-butyl ester] | 5.00 to 6.00 |  |
| CCC(=O)N1[C@@H]2CC[C@H]1C[C@H](Oc1ccc(-c3ccc4cccnc4c3C)cc1)C2 [Example 361, 1-{exo-3-[4-(8-Methylquinolin-7-yl)-phenoxy]-8-aza-bicyclo[3.2.1]oct-8-yl}-propan-1-one HCl] | 5.00 to 6.00 |  |
| O=C(C1CC1)N1CCC(Oc2ccc(-c3cnc4ccccc4c3)cc2)CC1 [Example 100, Cyclopropyl-[4-(4-quinolin-3-yl-phenoxy)-piperidin-1-yl]-methanone,HCl] | 7.00 to 9.00 |  |
| Cc1c(-c2ccc(OC3CCN(C(=O)[C@H]4CCCO4)C(C)C3)cc2)ccc2cccnc12 (mixture of isomers) [Example 362, {2-Methyl-4-[4-(8-methylquinolin-7-yl)-phenoxy]-piperidin-1-yl}-(R)-tetrahydrofuran-2-yl-methanone, HCl] | 7.00 to 9.00 |  |
| CN(C)c1c(-c2ccc(OC3CCN(C(=O)[C@H]4CCCO4)CC3)cc2)ccc2cccnc12 [Example 331, [4-[4-[8-(Dimethylamino)-7-quinolyl]phenoxy]-1-piperidyl]-[(2R)-tetrahydro-furan-2-yl]methanone] | 7.00 to 9.00 |  |
| CN(C)c1c(-c2ccc(OC3CCN(C(=O)[C@H]4CCCO4)CC3)cc2)cnc2ccccc12 [Example 233, {4-[4-(4-Dimethylaminoquinolin-3-yl)-phenoxy]-piperidin-1-yl}-(R)-tetrahydrofuran-2-yl-methanone] | 5.00 to 6.00 |  |
| CCC(=O)N1CCC(Oc2ccc(-c3ccc4nnc(C(F)(F)F)n4c3)cc2)CC1 [Example 159, 1-{4-[4-(3-Trifluoromethyl-1,2,4-triazolo[4,3-a]pyridin-6-yl)-phenoxy]-piperidin-1-yl}-propan-1-one, HCl] | 5.00 to 6.00 |  |
| CCC(=O)N1CCC(Oc2ccc(-c3cccc(-c4ccccn4)c3F)cc2)CC1 [Example 395, 1-[4-(2′-Fluoro-3′-pyridin-2-yl-biphenyl-4-yloxy)-piperidin-1-yl]-propan-1-one] | 5.00 to 6.00 |  |
| CCC(=O)N1CCC(Oc2ccc(-c3cnc4ccccc4c3)cn2)CC1 [Example 132, 1-[4-(5-Quinolin-3-yl-pyridin-2-yloxy)-piperidin-1-yl]-propan-1-one, HCl] | 5.00 to 6.00 |  |
| N#Cc1ccc(-c2ccc(OC3CCN(C(=O)C4CC4)CC3)cc2)cc1 [Example 495, 4′-(1-Cyclopropanecarbonyl-piperidin-4-yloxy)-biphenyl-4-carbonitrile] | 6.00 to 7.00 |  |
| O=C(C1CCC1)N1CCC(Oc2ccc(-c3ccc4c(Cl)nccc4c3)cc2)CC1 [Example 428, {4-[4-(1-Chloroisoquinolin-6-yl)-phenoxy]-piperidin-1-yl}-cyclobutyl-methanone] | 6.00 to 7.00 |  |
| O=C(C1CC1)N1CCC(Oc2ccc(-c3cnc4cccnc4c3)cc2)CC1 [Example 14, Cyclopropyl-[4-(4-1,5-naphthyridin-3-yl-phenoxy)-piperidin-1-yl]-methanone] | 5.00 to 6.00 |  |
| CCC(=O)N1CCC(Oc2ccc(-c3ccc4c(C)ncc(C)c4c3)cc2)CC1 [Example 469, 1-[4-[4-(1,4-Dimethyl-6-isoquinolyl)phenoxy]-1-piperidyl]propan-1-one, HCl] | 6.00 to 7.00 |  |
